Reference: PubChem BioAssay (NCI)
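1) Cells in 96-well plates. 2) Compound, 48 h, 5 concentrations. 3) Linear interpolation between surrounding doses. 4) Unreached endpoint = highest concentration. Abbreviation: GI50, concentration required for 50% inhibition of growth. TGI marks complete inhibition of growth.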

Key:
Assay in all cases: DTP human tumour cell line panel, 48 h
[1] = tested on: 786-0 renal
[2] = tested on: A498 renal
[3] = tested on: A549 NSCLC
[4] = tested on: ACHN renal
[5] = tested on: BT-549 breast
[6] = tested on: CAKI-1 renal
[7] = tested on: CCRF-CEM leukemia
[8] = tested on: COLO 205 colon
[9] = tested on: DU-145 prostate
[10] = tested on: EKVX NSCLC
[11] = tested on: HCC-2998 colon
[12] = tested on: HCT-116 colon
[13] = tested on: HCT-15 colon
[14] = tested on: HL-60(TB) leukemia
[15] = tested on: HOP-62 NSCLC
[16] = tested on: HOP-92 NSCLC
[17] = tested on: HS 578T breast
[18] = tested on: IGROV1 ovarian
[19] = tested on: K-562 leukemia
[20] = tested on: KM12 colon
[21] = tested on: M14 melanoma
[22] = tested on: MALME-3M melanoma
[23] = tested on: MDA-MB-231 breast
[24] = tested on: MDA-MB-435
[25] = tested on: MDA-MB-468 breast
[26] = tested on: MOLT-4 leukemia
[27] = tested on: NCI-H226 lung
[28] = tested on: NCI-H460 lung
[29] = tested on: NCI-H522 lung
[30] = tested on: OVCAR-3 ovarian
[31] = tested on: OVCAR-4 ovarian
[32] = tested on: OVCAR-5 ovarian
[33] = tested on: OVCAR-8 ovarian
[34] = tested on: PC-3 prostate
[35] = tested on: RPMI-8226 leukemia
[36] = tested on: RXF 393 renal
[37] = tested on: SF-268 CNS
[38] = tested on: SF-295 CNS
[39] = tested on: SF-539 CNS
[40] = tested on: SK-MEL-2 melanoma
[41] = tested on: SK-MEL-28 melanoma
[42] = tested on: SK-MEL-5 melanoma
[43] = tested on: SK-OV-3 ovarian
[44] = tested on: SN12C renal
[45] = tested on: SNB-19 CNS
[46] = tested on: SNB-75 CNS
[47] = tested on: SR leukemia
[48] = tested on: SW-620 colon
[49] = tested on: T-47D breast
[50] = tested on: TK-10 renal
[51] = tested on: U251 CNS
[52] = tested on: UACC-257 melanoma
[53] = tested on: UACC-62 melanoma
[54] = tested on: UO-31 renal

COC(=O)C[C@](O)(CCC(C)C)C(=O)O[C@@H]1C(OC)=C[C@]23CCCN2CCc2cc4c(cc2[C@H]13)OCO4
GI50 [1]: 104 nM
TGI [1]: 544 nM
GI50 [2]: 17.3 nM
TGI [2]: 163 nM
GI50 [3]: 52.1 nM
TGI [3]: 10700 nM
GI50 [4]: 40.2 nM
TGI [4]: 272 nM
GI50 [5]: 90.7 nM
TGI [5]: 412 nM
GI50 [6]: 179 nM
TGI [6]: 988 nM
GI50 [7]: 34.4 nM
TGI [7]: 431 nM
GI50 [8]: 91.6 nM
TGI [8]: 397 nM
GI50 [9]: 145 nM
TGI [9]: 645 nM
GI50 [10]: 116 nM
TGI [10]: 775 nM
GI50 [11]: 26.9 nM
TGI [11]: 129 nM
GI50 [12]: 36.3 nM
TGI [12]: 1050 nM
GI50 [13]: 36.4 nM
TGI [13]: 1270 nM
GI50 [14]: 14.3 nM
TGI [14]: 65.5 nM
GI50 [15]: 244 nM
TGI [15]: 1480 nM
GI50 [16]: 208 nM
TGI [16]: 724 nM
GI50 [17]: 138 nM
TGI [17]: 545 nM
GI50 [18]: 64.7 nM
TGI [18]: 525 nM
GI50 [19]: 28.9 nM
TGI [19]: 116 nM
GI50 [20]: 56.8 nM
TGI [20]: 546 nM
GI50 [21]: 50.4 nM
TGI [21]: 196 nM
GI50 [22]: 20.1 nM
TGI [22]: 68.4 nM
GI50 [23]: 247 nM
TGI [23]: 690 nM
GI50 [24]: 101 nM
TGI [24]: 351 nM
GI50 [25]: 25.5 nM
TGI [25]: 115 nM
GI50 [26]: 20.2 nM
TGI [26]: 140 nM
GI50 [27]: 31.7 nM
TGI [27]: 351 nM
GI50 [28]: 21.2 nM
TGI [28]: 82 nM
GI50 [29]: 21.2 nM
TGI [29]: 65.3 nM
GI50 [30]: 39 nM
TGI [30]: 306 nM
GI50 [31]: 39.5 nM
TGI [31]: 354 nM
GI50 [32]: 170 nM
TGI [32]: 596 nM
GI50 [33]: 130 nM
TGI [33]: 787 nM
GI50 [34]: 52.1 nM
TGI [34]: 756 nM
GI50 [35]: 33.7 nM
TGI [35]: 132 nM
GI50 [36]: 39.9 nM
TGI [36]: 285 nM
GI50 [37]: 192 nM
TGI [37]: 709 nM
GI50 [38]: 135 nM
TGI [38]: 662 nM
GI50 [39]: 23 nM
TGI [39]: 58 nM
GI50 [40]: 216 nM
TGI [40]: 642 nM
GI50 [41]: 70.6 nM
TGI [41]: 352 nM
GI50 [42]: 43.1 nM
TGI [42]: 181 nM
GI50 [43]: 159 nM
TGI [43]: 1620 nM
GI50 [44]: 259 nM
TGI [44]: 1110 nM
GI50 [45]: 36 nM
TGI [45]: 305 nM
GI50 [46]: 156 nM
TGI [46]: 417 nM
GI50 [47]: 18.2 nM
TGI [47]: 57.2 nM
GI50 [48]: 57.5 nM
TGI [48]: 473 nM
GI50 [49]: 191 nM
TGI [49]: 919 nM
GI50 [50]: 136 nM
TGI [50]: 1090 nM
GI50 [51]: 39.2 nM
TGI [51]: 4020 nM
GI50 [52]: 194 nM
TGI [52]: 810 nM
GI50 [53]: 144 nM
TGI [53]: 603 nM
GI50 [54]: 49.8 nM
TGI [54]: 449 nM
